Legend:
rats of Wistar strain [1] = assay: Chronic oral toxicity test
Procedure: Ubiquinone 10(CoQ10) was compulsorily and orally administered to each group consisting of 10 male rats and 10 female rats of Wistar strain for consecutive 26 weeks in a ratio of 6 days a week. The dose was 6, 60 and 600 mg/Kg/day, respectively. ubiquinone 10(CoQ10) was used in the form of gum Arabic suspension, whereas the solution containing gum Arabic alone is used as the control group. Collection of blood and urine samples and autopsies were carried out 26 weeks after the administration.

[2] = Clinical test: effectiveness of Ubiquinone 10(CoQ10) for nervous bladder; format: in vivo, human; design: Pressure curve Volume: unit not given beside the values; Residual urine / Urethral R. (Resistance): unit not given here
Procedure: Six patients compalining of dysuria and incontinentia urinac due to nervous bladder were made sujects. Case 1 was nocturnal enuresis of unknown cause, Cases 2-4 were impairement of root of spinal nerve (nuclear type), and Cases 5 and 6 were spinal impairements (supra nuclear type).
Hard capsules containing 5 mg of Ubiquinone 10(CoQ10) in the present invention were orally administered.
The dose of 1-3 capsules each time was orally administered 3 times a day after meals for consecutive 3-4 weeks as a rule. Depending on cases, 10 mg of Ubiquinone 10(CoQ10) was concurrently injected. The measurement of bladder functions, that is, the measurement of the pressure curve in the bladder, was carried out in accordance with any conventional method. However, the quantitative bladder crystometrographic curve (BR) was obtained by a modified method for the crystometry. More particularly, the curve was prepared by observing the condition of weak autonomic rhythmical contraction of the bladder wall, when the sensitivity and the recording rate of a crystometer were risen after the infusion of a certain amount of the solution.

mice = assay: Teratogenesis test in mice; format: in vivo, mouse; conditions: 6, 60, and 600 mg/Kg/day
rats = assay: Teratogenesis test in rats; format: in vivo, rat; conditions: 6, 60, and 600 mg/Kg/day
rats of Wistar strain [3] = conditions: rat, in vivo, po
Procedure: (§4) Ubiquinone 10(CoQ10) was compulsorily and orally administered every day for 5 weeks to each group consisting of 10 male rats and 10 female rats of Wistar strain. The dose was 40, 200, and 1000 mg/Kg/day, respectively. Ubiquinone 10(CoQ10) was used in the form of gum Arabic suspension, while the solution containing gum Arabic alone was used as the control group. Collection of blood and urine samples and autopsies were carried out 5 weeks after the initiation of administration.

rats of Wistar strain [4] = assay: Subacute toxicity test in rats
Procedure: as §4

rats of Wistar strain [5] = assay: Acute toxicity test in rats; conditions: for Maximum dose (no case of deaths): single dose, 7 days observation
Text: (§1) In order to evaluate the acute toxicity of a single high dose administration of Ubiquinone 10(CoQ10), male and female rats of Wistar strain and male and female mice of ICR-JCL strain were used, and oral, intramuscular, subcutaneous, and intravenous administrations were studied. For the oral administration of Ubiquinone 10(CoQ10), gum Arabic suspension was used. For the intramuscular, subcutaneous, and intravenous administrations, Ubiquinone 10(CoQ10) is used as its solution in surfactant, hydrogenated castor oil ethylene oxide addition product (HCO-60).
(§2) Observation was carried out for 7 days, by using six males and six females for each dose group.

[6] = in vivo
Text: as §1, §2
The dose was 40, 200, and 1000 mg/Kg/day, respectively.
(§3) Ubiquinone 10(CoQ10) was compulsorily and orally administered every day for 23 days to each group consisting of six male rabbits and five female rabbits. […] On the 24th day, blood samples were collected from all the animals, and three males and two females from each group were then selectively autopsied.

mice of ICR-JCL strain = assay: Acute toxicity test in mice; conditions: for Maximum dose (no case of deaths): single dose, 7 days observation
Text: as §1, §2

rabbits = assay: Subacute oral toxicity test in rabbits
Text: as §3

[7] = Physical and chemical properties: solubility; format: physicochemical
Text: Ubiquinone n, for example, Ubiquinone 10(CoQ10), can be mainly obtained synthetically, though it is possible to extract the Ubiquinone from animal organs. Physical and chemical properties of Ubiquinone 10(CoQ10) produced synthetically are as follows.

[8] = 6, 60, 600 mg/Kg/day oral, 26 weeks
[9] = spontaneous pneumonia and aspiration pneumonia due to erroneous administration, group not stated
[10] = Case 1, 20 days with 3 capsules
[11] = Case 1, 20 days with 3 capsules, After (Before: +)
[12] = Case 2, 30 days with 3 OR 20 days with 4 capsules
[13] = Case 3, 30 days with 1 OR 3 capsules
[14] = Case 4, 30 days with 3 capsules
[15] = Case 5, 50 days with 1 capsule, After (Before: ++)
[16] = Case 6, 30 days with 3 capsules
[17] = 6, 60, 600 mg/Kg/day oral, 23 days

## COC1=C(OC)C(=O)C(CC=C(C)CCC=C(C)CCC=C(C)CCC=C(C)CCC=C(C)CCC=C(C)CCC=C(C)CCC=C(C)CCC=C(C)CCC=C(C)C)=C(C)C1=O [Ubiquinone 10(CoQ10)]
Rats of Wistar strain [1]; [8]
  biochemical tests of blood and urine vs control: No significant change
  body weight: increased as same as that of the control group
  weight of organ: no significant increase and decrease
Rats of Wistar strain [1]; 6, 60, 600 mg/Kg/day oral, 6 days a week, 26 weeks
  general condition vs control: no difference
Rats of Wistar strain [1]; chronic oral, 26 weeks
  toxicity (overall): no toxicity was observed
Rats of Wistar strain [1]; hemoxylin.Eosine staining and liver fat staining, 26 weeks
  macroscopical and histological observation vs control: abnormalities were not recognized
Rats of Wistar strain [1]; some increase and decrease, not dose dependent, 26 weeks
  leukocytal percentages: within extent of physiological fluctuations
Rats of Wistar strain [1]; [9]
  animals died, females: 3
  animals died, males: 11
[2]; Case 1 (nocturnal enuresis), 20 days with 3 capsules, After (Before: 35)
  Residual urine: 5
[2]; [10]
  Effectiveness: Volume: increased
  Evaluation: Effective
[2]; Case 1, 20 days with 3 capsules, After (Before: 110)
  Urethral R. (Resistance): 100
[2]; Case 1, 20 days with 3 capsules, After (Before: 295)
  Pressure curve Volume: 340
[2]; [11]
  Basal Pressure BR: Normal
  Basal Pressure SR: Normal
[2]; Case 2 (spina bifida), 30 days with 3 capsules OR 20 days with 4 capsules, After (Before: 0)
  Residual urine: 0
[2]; [12]
  Effectiveness: Volume: increased
  Evaluation: Unchanged
[2]; Case 2, 30 days with 3 OR 20 days with 4 capsules, After (Before: 30)
  Urethral R. (Resistance): 33
[2]; Case 2, 30 days with 3 OR 20 days with 4 capsules, After (Before: 90)
  Pressure curve Volume: 110
[2]; Case 3 (spina bifida), 30 days with 1 capsule OR 30 days with 3 capsules, After (Before: 75)
  Residual urine: 65
[2]; [13]
  Effectiveness: Curve: improved
  Effectiveness: Residual urine: decreased
  Effectiveness: Volume: increased
  Evaluation: Effective
[2]; Case 3, 30 days with 1 OR 3 capsules, After (Before: 150)
  Pressure curve Volume: 200
[2]; Case 4 (spina bifida), 30 days with 3 capsules, After (Before: 95)
  Residual urine: 70
[2]; [14]
  Effectiveness: Anischuria: improved
  Effectiveness: BR: appeared
  Effectiveness: Volume: increased
[2]; Case 4, 30 days with 3 capsules, After (Before: 45)
  Urethral R. (Resistance): 49
[2]; Case 4, 30 days with 3 capsules, After (Before: 130)
  Pressure curve Volume: 345
[2]; Case 4, 30 days with 3 capsules, After (Before: ±)
  Basal Pressure BR: Normal
[2]; Case 5 (paraplegia), 50 days with 1 capsule, After (Before: 20)
  Residual urine: 0
[2]; Case 5, 50 days with 1 capsule
  Effectiveness: BR SR: normalized
  Effectiveness: Curve: improved
[2]; Case 5, 50 days with 1 capsule, After (Before: 76)
  Urethral R. (Resistance): 73
[2]; Case 5, 50 days with 1 capsule, After (Before: 240)
  Pressure curve Volume: 260
[2]; [15]
  Basal Pressure BR: Normal
  Basal Pressure SR: Normal
[2]; Case 6 (Myelitis Adhesiva), 30 days with 3 capsules, After (Before: 150)
  Pressure curve Volume: 150
[2]; [16]
  Effectiveness: Curve: improved
  Effectiveness: SR: improved
[2]; Case 6, 30 days with 3 capsules, After (Before: Reflex)
  Pressure curve Type: Reflex
[2]; among the 6 cases
  effective results and markedly effective results, number of cases: 5 cases
mice
  adverse effects in mothers, fetuses, and newborns: no adverse effects were noted
rats
  adverse effects in mothers, fetuses, and newborns: no adverse effects were noted
Rats of Wistar strain [3]
  macroscopical and histological observation: abnormality was not recognized
Rats of Wistar strain [4]; spontaneous pneumonia and aspiration pneumonia due to error of administration, group not stated
  dead animals during the experiment: 4
Rats of Wistar strain [4]; subacute oral, 5 weeks
  toxicity (overall): there was not recognized the toxicity
Rats of Wistar strain [5]; rat, in vivo
  general condition, body weight, food intake and autopsy findings: no change was recognized
Rats of Wistar strain [5]; rats, at the maximum dose in each administration route
  deaths: no case of deaths
Rats of Wistar strain [5]; rats, intramuscular
  Maximum dose (no case of deaths): 500 mg/kg
Rats of Wistar strain [5]; rats, intravenous
  Maximum dose (no case of deaths): 250 mg/kg
Rats of Wistar strain [5]; rats, oral
  Maximum dose (no case of deaths): 4000 mg/kg
Rats of Wistar strain [5]; rats, subcutaneous
  Maximum dose (no case of deaths): 500 mg/kg
Rats of Wistar strain [5]; rats, maximum doses of Table 1
  LD50: far higher than the maximum dose mentioned above
[6]
  overall safety: a very safe drug, without side-effects
Mice of ICR-JCL strain; mice, at the maximum dose in each administration route
  deaths: no case of deaths
Mice of ICR-JCL strain; mice, intramuscular
  Maximum dose (no case of deaths): 500 mg/kg
Mice of ICR-JCL strain; mice, intravenous
  Maximum dose (no case of deaths): 250 mg/kg
Mice of ICR-JCL strain; mice, oral
  Maximum dose (no case of deaths): 4000 mg/kg
Mice of ICR-JCL strain; mice, subcutaneous
  Maximum dose (no case of deaths): 500 mg/kg
Mice of ICR-JCL strain; mice, maximum doses of Table 1
  LD50: far higher than the maximum dose mentioned above
Mice of ICR-JCL strain; mouse, in vivo
  general condition, body weight, food intake and autopsy findings: no change was recognized
rabbits; [17]
  general condition and increase of body weight vs control: no difference
  weight of each organ: no effect
rabbits; 6, 60, 600 mg/Kg/day oral, 23 days, 24th day
  hematological test and biochemical test of blood: Abnormal findings were not obtained
rabbits; hematoxylin.Eosine staining and liver fat staining, 23 days oral
  macroscopical and histological observation: abnormalities were not recognized
rabbits; seventh, 14th and 24th days
  electron-microscopic observation of liver (minute structure): there were not recognized abnormal findings
rabbits; subacute oral, 23 days
  toxicity (overall): there were not recognized the findings wherein the toxicity of Ubiquinone 10(CoQ10) will be suggested
[7]; acetone
  solubility: soluble
[7]; benzene
  solubility: easily soluble
[7]; carbon tetrachloride
  solubility: easily soluble
[7]; chloroform
  solubility: easily soluble
[7]; ethanol
  solubility: insoluble
[7]; ether
  solubility: soluble
[7]; methanol
  solubility: hardly soluble
[7]; water
  solubility: hardly soluble

Reference: patent US4031205A, “Method for treating nervous bladder” (priority 1975, dated 1977)
